Test results: US7419980B2, “Fused-aryl and heteroaryl derivatives and methods of their use” (Wyeth, priority 2003, dated 2008)
Where a name gives a salt, the structure may show the parent alone. Read-outs that look alike come from different tables or passages of the source.

Molecular target: T1, human hNET (Homo sapiens, UniProt P23975)
T1 construct: expressed in transfected cells; host or cells: MDCK-Net6 (MDCK cells stably transfected with hNET)
Assay: Norepinephrine (NE) uptake assay in MDCK-Net6 cells
Type: cell-based
Description: MDCK-Net6 cells, stably transfected with human hNET (Pacholczyk, T., R. D. Blakely, and S. G. Amara, Nature, 1991, 350(6316): p. 350-4) were cultured in growth medium containing high glucose DMEM (Gibco, Cat. No. 11995), 10% FBS (dialyzed, heat-inactivated, US Bio-Technologies, Lot FBD1129HI) and 500 μg/ml G418 (Gibco, Cat. No. 10131). Cells were plated at 300,000/T75 flask and cells were split twice weekly. The JAR cell line (human placental choriocarcinoma) was purchased from ATCC (Cat. No. HTB-144). The cells were cultured in growth medium containing RPMI 1640 (Gibco, Cat. No. 72400), 10% FBS (Irvine, Cat. No. 3000), 1% sodium pyruvate (Gibco, Cat. No. 1136) and 0.25% glucose. Cells were plated at 250,000 cells/T75 flask and split twice weekly. For all assays, cells were plated in Wallac 96-well sterile plates (PerkinElmer, Cat. No. 3983498).
On day 1, cells were plated at 3,000 cells/well in growth medium and maintained in a cell incubator (37° C., 5% CO2). On day 2, growth medium was replaced with 200 μl of assay buffer (25 mM HEPES; 120 mM NaCl; 5 mM KCl; 2.5 mM CaCl2; 1.2 mM MgSO4; 2 mg/ml glucose (pH 7.4, 37° C.)) containing 0.2 mg/ml ascorbic acid and 10 μM pargyline. Plates containing cells with 200 μl of assay buffer were equilibrated for 10 minutes at 37° C. prior to addition of compounds. A stock solution of desipramine was prepared in DMSO (10 mM) and delivered to triplicate wells containing cells for a final tert concentration of 1 μM. Data from these wells were used to define non-specific NE uptake (minimum NE uptake). Test compounds were prepared in DMSO (10 mM) and diluted in assay buffer according to tert range (1 to 10,000 nM). Twenty-five microliters of assay buffer (maximum NE uptake) or tert compound were added directly to triplicate wells containing cells in 200 μl of assay buffer. The cells in assay buffer with tert compounds were incubated for 20 minutes at 37° C. To initiate the NE uptake, [^3H]NE diluted in assay buffer (120 nM final assay concentration) was delivered in 25 μl aliquots to each well and the plates were incubated for 5 minutes (37° C.). The reaction was terminated by decanting the supernatant from the plate. The plates containing cells were washed twice with 200 μl assay buffer (37° C.) to remove free radioligand. The plates were then inverted, left to dry for 2 minutes, then reinverted and air-dried for an additional 10 minutes. The cells were lysed in 25 μl of 0.25 N NaOH solution (4° C.), placed on a shake table and vigorously shaken for 5 minutes. After cell lysis, 75 μl of scintillation cocktail was added to each well and the plates were sealed with film tape. The plates were returned to the shake table and vigorously shaken for a minimum of 10 minutes to ensure adequate partitioning of organic and aqueous solutions. The plates were counted in a Wallac Microbeta counter (PerkinElmer) to collect the raw cpm data.
For each experiment, a data stream of cpm values collected from the Wallac Microbeta counter was downloaded to a Microsoft Excel statistical application program. Calculations of EC50 values were made using the transformed-both-sides logistic dose response program written by Wyeth Biometrics Department. The statistical program uses mean cpm values from wells representing maximum binding or uptake (assay buffer) and mean cpm values from wells representing minimum binding or uptake ((1 μM desipramine (hNET) or 1 μM paroxetine (hSERT)). Estimation of the EC50 value was completed on a log scale and the line was fit between the maximum and minimum binding or uptake values. All graphic data representation was generated by normalizing each data point to a mean percent based on the maximum and minimum binding or uptake values. The EC50 values reported from multiple experiments were calculated by pooling the raw data from each experiment and analyzing the pooled data as one experiment.

[1] = 1 μM test compound, [3H]NE uptake, MDCK-Net6 cells, read-out: % Inhibition @ 1 μM (hNET)
[2] = MDCK-Net6, read-out: % Inhibition @ 1 μM (hNET)

T1 sequence (P23975 whole entry): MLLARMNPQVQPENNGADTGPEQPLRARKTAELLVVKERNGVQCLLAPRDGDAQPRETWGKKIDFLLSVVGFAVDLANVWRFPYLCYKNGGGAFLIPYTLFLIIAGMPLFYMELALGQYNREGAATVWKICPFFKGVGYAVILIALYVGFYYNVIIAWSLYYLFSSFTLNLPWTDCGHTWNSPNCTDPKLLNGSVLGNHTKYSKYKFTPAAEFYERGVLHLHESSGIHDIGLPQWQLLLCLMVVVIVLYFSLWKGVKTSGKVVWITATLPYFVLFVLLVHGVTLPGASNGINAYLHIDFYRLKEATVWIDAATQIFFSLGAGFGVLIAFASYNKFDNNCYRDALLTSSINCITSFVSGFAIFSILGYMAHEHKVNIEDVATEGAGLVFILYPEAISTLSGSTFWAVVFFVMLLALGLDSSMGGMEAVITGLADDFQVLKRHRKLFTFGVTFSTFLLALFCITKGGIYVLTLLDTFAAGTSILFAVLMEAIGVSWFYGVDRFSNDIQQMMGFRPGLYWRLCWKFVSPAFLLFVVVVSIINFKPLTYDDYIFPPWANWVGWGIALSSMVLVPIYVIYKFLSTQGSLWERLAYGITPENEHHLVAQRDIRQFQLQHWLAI

SMILES | inhibition at 1 µM [1] [%] | inhibition at 1 µM [2] [%] | EC50 ([3H]NE uptake, MDCK-Net6 cells) [nM]
OC1(C(CN2CCNCC2)c2ccsc2Cl)CCCCC1 (stereo not drawn) [Example 156, 1-[1-(2-chlorothien-3-yl)-2-piperazin-1-ylethyl]cyclohexanol Dihydrochloride] |  | 55 | 720
CN1CCN(CC(c2csc(Cl)c2)C2(O)CCCCC2)CC1 (stereo not drawn) [Example 159, 1-[1-(5-chlorothien-3-yl)-2-(4-methylpiperazin-1-yl)ethyl]cyclohexanol Dihydrochloride] |  | 88 | 25
OC1(C(CN2CCNCC2)c2ccc3ccccc3c2)CCC1 (stereo not drawn) [Example 5, 1-[1-(2-naphthyl)-2-piperazin-1-ylethyl]cyclobutanol Dihydrochloride] | 97 |  | 160
NC1CCN(CC(c2csc(Cl)c2)C2(O)CCCCC2)CC1 (stereo not drawn) [Example 145, 1-[2-(4-aminopiperidin-1-yl)-1-(5-chlorothien-3-yl)ethyl]cyclohexanol Dihydrochloride] |  | 38 | 
OC1(C(CN2CCNCC2)c2csc(Cl)c2)CCCCC1 (stereo not drawn) [Example 144, 1-[1-(5-chlorothien-3-yl)-2-piperazin-1-ylethyl]cyclohexanol Dihydrochloride] |  | 86 | 100
CCC1CCC(O)(C(CN2CCNCC2)c2cccc3ccccc23)CC1 (stereo not drawn) [Example 91, 4-ethyl-1-[1-(1-naphthyl)-2-piperazin-1-ylethyl]cyclohexanol Dihydrochloride] | 14 |  | 

The next lines start with results.

inhibition at 1 µM [1] [%] | SMILES | inhibition at 1 µM [2] [%] | EC50 ([3H]NE uptake, MDCK-Net6 cells) [nM]
91 | OC1(C(CN2CCNCC2)c2cc(Br)cs2)CCCCC1 (stereo not drawn) [Example 281, 1-[1-(4-bromothien-2-yl)-2-piperazin-1-ylethyl]cyclohexanol Dihydrochloride] |  | 
16 | CC1CCC(O)(C(CN2CCN(C)CC2)c2cccc3ccccc23)CC1 (stereo not drawn) [Example 333, 4-methyl-1-[2-(4-methylpiperazin-1-yl)-1-(1-naphthyl)ethyl]cyclohexanol Dihydrochloride] |  | 
16 | COc1ccc2scc(C(CN3CCNCC3)C3(O)CCCCC3)c2c1 (stereo not drawn) [Example 279, 1-[1-(5-methoxy-1-benzothien-3-yl)-2-piperazin-1-ylethyl]cyclohexanol Dihydrochloride] |  | 
47 | OC1(C(CN2CCNCC2)c2ccc(Br)s2)CCCCC1 (stereo not drawn) [Example 143, 1-[1-(5-bromothien-2-yl)-2-piperazin-1-ylethyl]cyclohexanol Dihydrochloride] |  | 
5.1 | CCC1CCC(O)(C(CN2CCN(C)CC2)c2cccc3ccccc23)CC1 (stereo not drawn) [Example 328, 4-ethyl-1-[2-(4-methylpiperazin-1-yl)-1-(1-naphthyl)ethyl]cyclohexanol Dihydrochloride] |  | 
